The source of these data is ChEMBL document CHEMBL4420076, “Amylin and calcitonin receptor agonist” (2017).

Numbered stars: 1 amine (or outer) side, 2 acyl side, 3 side chain; on linkers, the order of the positions; unused ones are H or OH. Peptide text beside a SMILES is read from it. * marks the point of attachment. C20 diacid = O=C(O)CCCCCCCCCCCCCCCCCCC(=O)*; C16 diacid = O=C(O)CCCCCCCCCCCCCCC(=O)*; γGlu = O=C(O)[C@H](CCC(=O)[*:2])N[*:1]

The nature of series [1]: Solubility in 100 mM bistrispropane buffer at pH 8.0 incubated for 18 hrs by UPLC analysis. The class given is physicochemical.
Series [2] deals with Rattus norvegicus. Nature of the series: Reduction in food intake in Sprague-Dawley rat at 3 nmol/kg measured 0 to 24 hrs post dose relative to control. The class given is functional. More on the design: scale not given: the % may be the effect or the level left.
Series [3] deals with T1, Amylin receptor AMY3; CALCR/RAMP3 (Rattus norvegicus, UniProt P32214+Q9JJ73).
T1 sequence (P32214 whole entry): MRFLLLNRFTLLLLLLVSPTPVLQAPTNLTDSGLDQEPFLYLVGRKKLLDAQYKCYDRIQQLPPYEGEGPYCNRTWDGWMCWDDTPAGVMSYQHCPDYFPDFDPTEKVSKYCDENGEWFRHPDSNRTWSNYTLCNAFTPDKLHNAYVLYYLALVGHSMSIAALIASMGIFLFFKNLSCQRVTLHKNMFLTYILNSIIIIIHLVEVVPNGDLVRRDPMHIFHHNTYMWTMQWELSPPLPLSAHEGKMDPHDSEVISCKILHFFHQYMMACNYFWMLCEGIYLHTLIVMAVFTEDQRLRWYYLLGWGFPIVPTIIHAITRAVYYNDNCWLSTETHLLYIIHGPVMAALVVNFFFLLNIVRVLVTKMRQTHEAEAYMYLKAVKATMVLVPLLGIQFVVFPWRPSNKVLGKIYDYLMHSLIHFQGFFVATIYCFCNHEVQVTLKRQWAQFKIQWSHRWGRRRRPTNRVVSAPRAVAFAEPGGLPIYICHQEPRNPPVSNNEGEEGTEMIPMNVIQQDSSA
T1 sequence (Q9JJ73 whole entry): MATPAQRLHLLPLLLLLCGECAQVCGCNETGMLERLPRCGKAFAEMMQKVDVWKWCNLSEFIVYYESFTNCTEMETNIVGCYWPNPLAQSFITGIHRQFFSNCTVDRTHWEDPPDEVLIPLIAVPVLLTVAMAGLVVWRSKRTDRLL
Nature of the series: Displacement of [125I]-labeled rat amylin from rat amylin receptor expressed in BHK tkts13 cell membranes co-expressing RAMP3 incubated for 120 mins by scintillation proximity assay. (Displacement assays read how much labelled ligand stays bound in the presence of the test substance.)

The nature of series [4]: Solubility in 100 mM glycylglycine buffer at pH 4.0 incubated for 18 hrs by UPLC analysis. In kind it is physicochemical.
Series [5] in a line: Solubility in 100 mM bistrispropane buffer at pH 6.0 incubated for 18 hrs by UPLC analysis. The class given is physicochemical.
For series [6], the target named is T2, Calcitonin receptor (Homo sapiens, UniProt P30988).
T2 sequence (P30988 whole entry): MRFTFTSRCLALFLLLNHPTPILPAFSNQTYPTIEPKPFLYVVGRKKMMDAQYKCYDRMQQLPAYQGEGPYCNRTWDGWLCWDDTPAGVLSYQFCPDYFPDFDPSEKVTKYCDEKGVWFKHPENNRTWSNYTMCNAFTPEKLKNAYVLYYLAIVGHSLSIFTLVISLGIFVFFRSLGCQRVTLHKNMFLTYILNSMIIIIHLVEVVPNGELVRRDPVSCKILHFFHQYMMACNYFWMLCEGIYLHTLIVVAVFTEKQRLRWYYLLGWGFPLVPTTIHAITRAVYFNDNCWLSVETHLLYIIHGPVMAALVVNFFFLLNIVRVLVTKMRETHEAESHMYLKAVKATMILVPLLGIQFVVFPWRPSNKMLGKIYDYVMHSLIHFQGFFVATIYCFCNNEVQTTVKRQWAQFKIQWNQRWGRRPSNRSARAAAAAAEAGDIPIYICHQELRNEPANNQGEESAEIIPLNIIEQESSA
The experiment in a line: Agonist activity at human calcitonin receptor expressed in BHK570 cells assessed as increase in intracellular cAMP concentration incubated for 3 hrs in presence of 10% FBS by CRE luciferase reporter gene assay. The class given is functional, cell-based. (Reporter assays use an easily measured gene product as a stand-in for the process of interest.)

The nature of series [7]: Solubility in 100 mM bistrispropane buffer at pH 7.0 incubated for 18 hrs by UPLC analysis. In kind it is physicochemical.
Series [8] relates to Rattus norvegicus. The experiment in a line: Reduction in food intake in Sprague-Dawley rat at 3 nmol/kg measured 24 to 48 hrs post dose relative to control. In kind it is functional. Set-up: scale not given: the % may be the effect or the level left.
The target in series [9] is T3, Amylin receptor AMY3; CALCR/RAMP3 (Homo sapiens, UniProt O60896+P30988).
T3 sequence (P30988 whole entry): T2 sequence (P30988 whole entry)
T3 sequence (O60896 whole entry): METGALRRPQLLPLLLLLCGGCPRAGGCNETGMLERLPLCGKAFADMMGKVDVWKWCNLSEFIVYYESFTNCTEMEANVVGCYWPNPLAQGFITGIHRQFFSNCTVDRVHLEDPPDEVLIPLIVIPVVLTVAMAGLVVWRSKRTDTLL
Nature of the series: Agonist activity at human amylin receptor expressed in BHK570 cells co-expressing RAMP3 assessed as increase in intracellular cAMP concentration incubated for 3 hrs in presence of 10% FBS by CRE luciferase reporter gene assay. The class given is functional, cell-based.

Series [10] addresses T3, Amylin receptor AMY3; CALCR/RAMP3. The experiment in a line: Displacement of [125I]-labeled rat amylin from human amylin receptor expressed in BHK570 cell membranes co-expressing RAMP3 incubated for 120 mins by scintillation proximity assay.
Series [11] is described as follows: Solubility in 100 mM bistrispropane buffer at pH 6.5 incubated for 18 hrs by UPLC analysis. In kind it is physicochemical.
The nature of series [12]: Solubility in 100 mM glycylglycine buffer at pH 3.0 incubated for 18 hrs by UPLC analysis. The class given is physicochemical.
Series [13] has as its target T3, Amylin receptor AMY3; CALCR/RAMP3. The experiment in a line: Agonist activity at human amylin receptor expressed in BHK570 cells co-expressing RAMP3 assessed as increase in intracellular cAMP concentration incubated for 3 hrs in absence of albumin by CRE luciferase reporter gene assay. In kind it is functional, cell-based.
A short description of series [14]: Solubility in 100 mM bistrispropane buffer at pH 7.5 incubated for 18 hrs by UPLC analysis. In kind it is physicochemical.
The nature of series [15]: Solubility in 100 mM glycylglycine buffer at pH 5.0 incubated for 18 hrs by UPLC analysis. The class given is physicochemical.
In series [16] the target is T2, Calcitonin receptor. The experiment in a line: Agonist activity at human calcitonin receptor expressed in BHK570 cells assessed as increase in intracellular cAMP concentration incubated for 3 hrs in absence of albumin by CRE luciferase reporter gene assay. The class given is functional, cell-based.
The nature of series [17]: Stability in pH 7.5 buffer assessed as compound recovery at 1 uM by Thioflavin T based fluorescence assay. In kind it is physicochemical. The following applies: read-out: Drug recovery.
Series [18] can be described thus: Stability in pH 7.5 buffer assessed as lag time for fibril formation at 1 uM by Thioflavin T based fluorescence assay. The class given is physicochemical. Conditions: pH 7.5, 1 µM.

Take `CC(C)C[C@H](NC(=O)[C@H](C)NC(=O)[C@H](C)NC(=O)[C@@H](NC(=O)[C@H](CO)NC(=O)[C@H](CC(C)C)NC(=O)[C@H](CCC(=O)O)NC(=O)[C@H](CO)NC(=O)[C@H](C)NC(=O)CCCCCCCCCCCCCCC(=O)O)[C@@H](C)O)C(=O)NCC(=O)N[C@@H](CCCNC(=N)N)C(=O)N[C@@H](CC(C)C)C(=O)N[C@@H](CO)C(=O)N[C@@H](C)C(=O)N[C@@H](CCC(=O)O)C(=O)N[C@@H](CC(C)C)C(=O)N[C@@H](Cc1cnc[nH]1)C(=O)N[C@@H](CCC(=O)O)C(=O)N[C@@H](CC(C)C)C(=O)N[C@@H](C)C(=O)N[C@H](C(=O)N[C@@H](CC(C)C)C(=O)N1CCC[C@H]1C(=O)N[C@@H](CCCNC(=N)N)C(=O)N[C@H](C(=O)N[C@@H](CCC(=O)O)C(=O)N[C@H](C(=O)NCC(=O)N[C@@H](CO)C(=O)NCC(=O)N[C@@H](CO)C(=O)N1CCC[C@H]1C(N)=O)[C@@H](C)O)[C@@H](C)O)[C@@H](C)O` ({C16 diacid}-ASELSTAALGRLSAELHELATLPRTETGSGSP-NH2): the solubility at 18 h in [1], in series [4], in [5], in [7], in series [11] and in [12] was at least 200 µM each time. Moreover, the solubility at 18 h in [14] and in series [15] was at least 200 µM each time. The Activity was 28% in series [2] and -2% in series [8]. Besides, the IC50 – broadly, the point on the concentration scale where inhibition reaches its midpoint – was 0.064 nM in [3] and 0.015 nM in series [10]. The results for the EC50 in series [6], in series [9] and in [13] were 0.003 nM, 0.004 nM and 0.01 nM, respectively.
Consider `CC(C)C[C@H](NC(=O)[C@H](CCCNC(=N)N)NC(=O)CNC(=O)[C@H](CC(C)C)NC(=O)[C@@H](NC(=O)[C@H](C)NC(=O)[C@@H](NC(=O)[C@H](CO)NC(=O)[C@H](CC(C)C)NC(=O)[C@H](CCC(=O)O)NC(=O)[C@H](CO)NC(=O)[C@H](C)NC(=O)CC[C@H](NC(=O)CCCCCCCCCCCCCCCCCCC(=O)O)C(=O)O)[C@@H](C)O)[C@@H](C)O)C(=O)N[C@@H](CO)C(=O)N[C@@H](C)C(=O)N[C@@H](CCC(=O)O)C(=O)N[C@@H](CC(C)C)C(=O)N[C@@H](Cc1cnc[nH]1)C(=O)N[C@@H](CCC(=O)O)C(=O)N[C@@H](CC(C)C)C(=O)N[C@@H](CO)C(=O)N[C@H](C(=O)N[C@@H](Cc1ccc(O)cc1)C(=O)N1CCC[C@H]1C(=O)N[C@@H](CCCNC(=N)N)C(=O)N[C@H](C(=O)N[C@@H](CCC(=O)O)C(=O)N[C@H](C(=O)NCC(=O)N[C@@H](CO)C(=O)NCC(=O)N[C@@H](CO)C(=O)N[C@@H](Cc1ccc(O)cc1)C(N)=O)[C@@H](C)O)[C@@H](C)O)[C@@H](C)O` ({C20 diacid-γGlu}-ASELSTATLGRLSAELHELSTYPRTETGSGSY-NH2), for which the solubility at 18 h in series [1], in series [4], in series [5], in series [7], in [11] and in [12] was at least 200 µM each time. Besides, in series [14], the solubility (as a rule, the dissolved amount per volume that the medium holds) at 18 h is at least 200 µM. Moreover, the Activity was 46% in series [2] and 68% in series [8]. Also, the values for the IC50 in series [3] and in series [10] were 0.045 nM and 0.159 nM, respectively. Further, the EC50 (as a rule, the concentration that produces a half-maximal response) in [16] was 0.023 nM; in series [6] it was 0.04 nM; in series [9], 0.092 nM; in series [13] it was 0.02 nM.
Consider `CC(C)C[C@H](NC(=O)CNC(=O)[C@H](CO)NC(=O)[C@H](C)NC(=O)COCCOCCNC(=O)COCCOCCNC(=O)CC[C@H](NC(=O)CCCCCCCCCCCCCCCCCCC(=O)O)C(=O)O)C(=O)N[C@@H](CO)C(=O)N[C@H](C(=O)N[C@@H](C)C(=O)N[C@H](C(=O)N[C@@H](CC(C)C)C(=O)NCC(=O)N[C@@H](CCCNC(=N)N)C(=O)N[C@@H](CC(C)C)C(=O)N[C@@H](CO)C(=O)N[C@@H](CCC(N)=O)C(=O)N[C@@H](CCC(=O)O)C(=O)N[C@@H](CC(C)C)C(=O)N[C@@H](Cc1cnc[nH]1)C(=O)N[C@@H](CCC(=O)O)C(=O)N[C@@H](CC(C)C)C(=O)N[C@@H](CCC(N)=O)C(=O)N[C@H](C(=O)N[C@@H](Cc1ccc(O)cc1)C(=O)N1CCC[C@H]1C(=O)N[C@@H](CCCNC(=N)N)C(=O)N[C@H](C(=O)N[C@@H](CCC(=O)O)C(=O)N[C@H](C(=O)NCC(=O)N[C@@H](CO)C(=O)NCC(=O)N[C@H](C(=O)N[C@@H](Cc1ccc(O)cc1)C(N)=O)[C@@H](C)O)[C@@H](C)O)[C@@H](C)O)[C@@H](C)O)C(C)C)[C@@H](C)O`, for which the remaining at 1 µM in series [17] was 100%. Further, the solubility at 18 h in series [1], in series [4], in [5], in series [7], in series [11] and in series [12] was at least 200 µM each time. This molecule showed a solubility at 18 h in series [14] of at least 200 µM. Besides, the Activity in [2] is given as 22%; in series [8], 19%. Further, the results for the IC50 in [3] and in series [10] were 0.029 nM and 0.166 nM, respectively. Moreover, the Time in series [18] is over 45 h. For the same molecule, the EC50 was 0.052 nM in [16], 0.068 nM in [6] and 0.123 nM in series [9].
